Data on one compound can be found in US20230357856A1, “METHODS AND COMPOSITIONS FOR PROGNOSING GLIOBLASTOMA OR BREAST CANCER” (The Johns Hopkins University, priority 2020, published 2023).

SMILES strings stand for the structures. “Also recorded” adds a separate entry of the source.

For the test, the system named is metastatic MDA-MB-231 breast cancer cells. The experiment in a line: Microfluidic Assay for Quantification of Cell Invasion (MAqCI), migration of breast cancer cells. It is filed as cell-based. The settings on record: 5 µM, 13 hours post administration, MDA-MB-231 cells, compared to vincristine (VC); FIG. 24.

Consider `Fc1ccc([C@@H]2CCNC[C@H]2COc2ccc3c(c2)OCO3)cc1` [paroxetine], for which the “percentage of migratory cells in MAqCI” value was “down to the levels of non-metastatic cells; also recorded: decreases the percent of migratory cells to the level of non-metastatic cells”.
